Measured values taken from paper PMC7291858, “An Enhanced Variant Designed From DLP4 Cationic Peptide Against Staphylococcus aureus CVCC 546” (Frontiers in Microbiology, 2020).
Ends that are not written are not given here. Peptide text beside a SMILES is read from it.

How the values were obtained:
S. aureus ATCC 43300 = type: cell-based, Staphylococcus aureus; conditions: microtiter, serial 2-fold dilutions, 37°C, 16∼20 h, triplicate; – = no activity
Protocol: (§1) The minimal inhibitory concentration (MIC) was evaluated by a microtiter plate assay ([Wiegand et al., 2008]). Serial 2-fold dilutions of test peptides were placed into a 96-well plate containing identical bacterial inoculum and incubated at 37°C for 16∼20 h. Vancomycin was used as antibiotic control. The MIC value was defined as the lowest peptide concentration where no visible growth occurred. All tests were made in triplicate.

[1] = system: Staphylococcus aureus CVCC 546; experiment: microbe, parasite or virus in culture; type: cell-based; conditions: Table 1; – = no activity
Protocol: as §1

S. aureus CVCC 546 = experiment: Potassium ion (K+) leakage; type: cell-based, Staphylococcus aureus; conditions: 1 × MIC, treated for 150 min, 0.9% saline, 10^8 CFU/mL, ICP, n = 3
Protocol: To further investigate the effects of peptides on membrane integrity, K^+ leakage determination was carried out as previously described ([Miao et al., 2016]). Briefly, S. aureus CVCC 546 cells were centrifuged, washed, and resuspended in 0.9% sterile saline. The cell suspension (10^8 CFU/mL) was treated with peptides at 1 × MIC. Cells untreated and treated with DLP4 or nisin were used as blank and positive controls. At time intervals of 30, 60, 90, 120, and 150 min, the suspensions were centrifuged at 12000 rpm for 5 min. The supernatants were then subjected to measurement by Agilent inductively coupled plasma optical emission (ICP-OES).

Compound	A1 (MIC against S. aureus ATCC 43300) (S. aureus ATCC 43300) [µg/mL]	MIC [1]	level of released K+ (S. aureus CVCC 546) [mg/L]
CC[C@H](C)[C@@H]1NC(=O)[C@@H]2CSSC[C@@H](C(=O)N[C@@H](CCCNC(=N)N)C(=O)N[C@@H](CCCCN)C(=O)O)NC(=O)[C@H](CC(N)=O)NC(=O)[C@@H]3CSSC[C@H](NC(=O)[C@H](C)NC(=O)[C@H](C)NC(=O)[C@H](Cc4c[nH]cn4)NC(=O)CNC(=O)[C@H](C(C)C)NC(=O)[C@H](CCCCN)NC(=O)[C@H](Cc4ccccc4)NC(=O)[C@@H]4CCCN4C(=O)[C@H](CO)NC(=O)[C@H](CC(C)C)NC(=O)[C@H](CC(C)C)NC(=O)[C@H](CC(=O)O)NC(=O)[C@@H](NC(=O)[C@@H](NC(=O)[C@H](C)N)[C@@H](C)O)CSSC[C@H](NC(=O)[C@H](Cc4c[nH]c5ccccc45)NC(=O)CNC(=O)CNC(=O)[C@H](CCCNC(=N)N)NC(=O)[C@H](CCCCN)NC(=O)CNC(=O)[C@H](CCCNC(=N)N)NC(=O)[C@H](C)NC1=O)C(=O)N[C@@H](CC(=O)O)C(=O)N[C@@H](CCCCN)C(=O)N[C@@H](CCCNC(=N)N)C(=O)N[C@@H](C)C(=O)N[C@@H](C(C)C)C(=O)N3)C(=O)N[C@@H](C)C(=O)N[C@@H](C(C)C)C(=O)N[C@@H](Cc1c[nH]cn1)C(=O)N2 [ID28] (HELM PEPTIDE1{A.T.C.D.L.L.S.P.F.K.V.G.H.A.A.C.A.V.H.C.I.A.R.G.K.R.G.G.W.C.D.K.R.A.V.C.N.C.R.K}$PEPTIDE1,PEPTIDE1,3:R3-30:R3|PEPTIDE1,PEPTIDE1,16:R3-36:R3|PEPTIDE1,PEPTIDE1,20:R3-38:R3$$$V2.0; N-terminus and C-terminus assumed; bridges inferred)	8	16	–
CC(C)C[C@@H]1NC(=O)[C@@H]2CSSC[C@@H](C(=O)N[C@@H](CCCNC(=N)N)C(=O)N[C@@H](CCCCN)C(=O)O)NC(=O)[C@H](CC(N)=O)NC(=O)[C@@H]3CSSC[C@H](NC(=O)[C@H](C)NC(=O)[C@H](C)NC(=O)[C@H](Cc4c[nH]cn4)NC(=O)CNC(=O)[C@H](C(C)C)NC(=O)[C@H](CCCCN)NC(=O)[C@H](Cc4ccccc4)NC(=O)[C@@H]4CCCN4C(=O)[C@H](CO)NC(=O)[C@H](CC(C)C)NC(=O)[C@H](CC(C)C)NC(=O)[C@H](CC(=O)O)NC(=O)[C@@H](NC(=O)[C@@H](NC(=O)[C@H](C)N)[C@@H](C)O)CSSC[C@H](NC(=O)[C@H](Cc4c[nH]c5ccccc45)NC(=O)CNC(=O)CNC(=O)[C@H](CCCNC(=N)N)NC(=O)[C@H](CCCCN)NC(=O)CNC(=O)[C@H](CCCNC(=N)N)NC(=O)[C@H](C)NC1=O)C(=O)N[C@@H](CC(=O)O)C(=O)N[C@@H](CCCCN)C(=O)N[C@@H](CCCNC(=N)N)C(=O)N[C@@H](C)C(=O)N[C@@H](C(C)C)C(=O)N3)C(=O)N[C@@H](C)C(=O)N[C@@H](C)C(=O)N[C@@H](Cc1c[nH]cn1)C(=O)N2 [ID29] (HELM PEPTIDE1{A.T.C.D.L.L.S.P.F.K.V.G.H.A.A.C.A.A.H.C.L.A.R.G.K.R.G.G.W.C.D.K.R.A.V.C.N.C.R.K}$PEPTIDE1,PEPTIDE1,3:R3-30:R3|PEPTIDE1,PEPTIDE1,16:R3-36:R3|PEPTIDE1,PEPTIDE1,20:R3-38:R3$$$V2.0; N-terminus and C-terminus assumed; bridges inferred)	64	128	–
CC[C@H](C)[C@@H]1NC(=O)[C@H](C)NC(=O)[C@H](CCCNC(=N)N)NC(=O)[C@H](CCCCN)NC(=O)[C@H](CC(=O)O)NC(=O)[C@@H]2CSSC[C@H](NC(=O)[C@@H](NC(=O)[C@H](C)N)[C@@H](C)O)C(=O)N[C@@H](CC(=O)O)C(=O)N[C@@H](CC(C)C)C(=O)N[C@@H](CC(C)C)C(=O)N[C@@H](CO)C(=O)N3CCC[C@H]3C(=O)N[C@@H](Cc3ccccc3)C(=O)N[C@@H](CCCCN)C(=O)N[C@@H](C(C)C)C(=O)NCC(=O)N[C@@H](Cc3c[nH]cn3)C(=O)N[C@@H](C)C(=O)N[C@@H](C)C(=O)N[C@H]3CSSC[C@H](NC1=O)C(=O)N[C@@H](CC(N)=O)C(=O)N[C@H](C(=O)N[C@@H](CCCNC(=N)N)C(=O)N[C@@H](CCCCN)C(=O)O)CSSC[C@H](NC(=O)[C@H](Cc1c[nH]cn1)NC(=O)[C@H](C)NC(=O)[C@H](C)NC3=O)C(=O)N[C@@H]([C@@H](C)CC)C(=O)N[C@@H](C)C(=O)N[C@@H](CCCNC(=N)N)C(=O)NCC(=O)N[C@@H](CCCCN)C(=O)N[C@@H](CCCNC(=N)N)C(=O)NCC(=O)NCC(=O)N[C@@H](Cc1c[nH]c3ccccc13)C(=O)N2 [ID30] (HELM PEPTIDE1{A.T.C.D.L.L.S.P.F.K.V.G.H.A.A.C.A.A.H.C.I.A.R.G.K.R.G.G.W.C.D.K.R.A.I.C.N.C.R.K}$PEPTIDE1,PEPTIDE1,3:R3-30:R3|PEPTIDE1,PEPTIDE1,16:R3-36:R3|PEPTIDE1,PEPTIDE1,20:R3-38:R3$$$V2.0; N-terminus and C-terminus assumed; bridges inferred)	16	32	–
nisin (ITSISLCTPGCKTGALMGCNMKTATCHCSIHVSK; also: lantibiotic: thioether rings and dehydro residues not placed; UniProt P13068 24-57, looked up) [positive control in K+ leakage assay]	–	–	1.03
